In patent US6500817B1, “Thiazolyl urea derivatives and their utilization as antiviral agents” (Bayer Aktiengesellschaft, priority 1999, dated 2002) one finds melting point data, which are given here for 79 molecules.

The molecule `CCc1nc(N(CCCO)C(=O)Nc2ccc(N3CCOCC3)cc2)sc1S(=O)(=O)NC` displayed a melting point of 169 °C. Under `CN(C(=O)Nc1ccc(OC(F)(F)C(F)F)cc1)c1nc(Cl)c(S(=O)(=O)N(C)C)s1` stands 168 °C. `CCOc1ccc(NC(=O)N(CC2CCCN2CC)c2nc(C)c(S(=O)(=O)N(C)C)s2)cc1` (stereo not shown): the melting point is 158 °C. Under `CCOC(=O)N1CC2CCC(c3ccc(NC(=O)N(C)c4nc(C)c(S(=O)(=O)N(C)C)s4)cc3)C2C1` (stereo not shown) stands 136 to 137 °C. Under `CCOc1ccc(NC(=O)N(Cc2ccncc2)c2nc(C)c(S(=O)(=O)N(C)C)s2)cc1` stands 188 °C; under `CCOc1ccc(NC(=O)N(CCOc2ccccc2)c2nc(C)c(S(=O)(=O)NC)s2)cc1`, 158 °C; under `Cc1nc(N(CCN(C)C)C(=O)Nc2ccc(-c3ccccc3)cc2)sc1S(N)(=O)=O`, 138 °C. Then `CNS(=O)(=O)c1sc(N(C)C(=O)Nc2ccc(N3CCCCC3)cc2)nc1C`, with 157 to 160 °C (dec.); and `Cc1nc(N(C)C(=O)Nc2ccc(N3CCOCC3)cc2)sc1S(=O)(=O)N(C)C` [67], with 171 °C; and `CNS(=O)(=O)c1sc(N(C)C(=O)Nc2ccc(-c3cccc(OC)c3)cc2)nc1C`, with 178 °C. Take `CCOc1ccc(NC(=O)N(CCNC(C)=O)c2nc(C)c(S(=O)(=O)N(C)C)s2)cc1`: the melting point was 184 °C.

Molecule `Cc1nc(N(C)C(=O)Nc2ccc(-c3ccccc3)cc2)sc1S(N)(=O)=O` came in with a melting point of 221 °C. The molecule `CCOc1ccc(NC(=O)N(C)c2nc(C)c(S(=O)(=O)NCc3cccc(OC)c3)s2)cc1` registered a melting point of 134 °C. Consider `CCOc1ccc(NC(=O)N(CC(C)C)c2nc(C)c(S(=O)(=O)N(C)C)s2)cc1`, for which the melting point was determined as 173 °C. Under `CCOc1ccc(NC(=O)N(C)c2nc(Cl)c(S(=O)(=O)NC)s2)cc1` stands 183 °C; under `CCOc1ccc(NC(=O)N(CCCO)c2nc(C)c(S(=O)(=O)N(C)C)s2)cc1`, 147 °C; under `CN(C(=O)Nc1ccc(N2CCOCC2)c(Cl)c1)c1nc(Cl)c(S(=O)(=O)N(C)C)s1`, 203 °C. Then `CCOc1ccc(NC(=O)N(CCN(C)C)c2nc(C)c(S(N)(=O)=O)s2)cc1`, with 162 °C. Regarding `Cc1nc(N(C)C(=O)Nc2ccc(-n3cccc3)cc2)sc1S(=O)(=O)NC1CC1`, the melting point was 194 °C. Under `CCOc1ccc(NC(=O)N(C)c2nc(Cl)c(S(=O)(=O)NC3CC3)s2)cc1` stands 183 °C. `CNS(=O)(=O)c1sc(N(C)C(=O)Nc2ccc(N3CC=CC3)cc2)nc1C` registered a melting point of 208 to 209 °C. Then `CCOc1ccc(NC(=O)N(Cc2ccncc2)c2nc(C)c(S(=O)(=O)NC)s2)cc1`, with 198 °C; and `CCCN(C(=O)Nc1ccc(-c2ccccc2)cc1)c1nc(C)c(S(=O)(=O)NCC)s1`, with 160 °C. Then `Cc1nc(N(C)C(=O)Nc2ccc(N3CCOCC3)cc2)sc1S(=O)(=O)N(C)CCn1ccnn1`, with 172 °C.

In turn, `CCOc1ccc(NC(=O)N(C)c2nc(C)c(S(=O)(=O)NCc3cccnc3)s2)cc1` yielded a melting point of 158 °C. Under `Cc1nc(N(C)C(=O)Nc2ccc(N3CCOCC3)cc2)sc1S(=O)(=O)N(C)Cc1ccccn1` stands 148 °C; under `CSc1ccc(NC(=O)N(C)c2nc(Cl)c(S(=O)(=O)N(C)C)s2)cc1`, 194 °C; under `CCCOc1ccc(NC(=O)N(C)C2=CC(C)=C(S(=O)(=O)NCCOC)C2)cc1`, 97 °C. Then `CCOc1ccc(NC(=O)N(CCCNC(=O)OC(C)(C)C)c2nc(C)c(S(=O)(=O)NC)s2)cc1`, with 146 °C; and `CCOc1ccc(NC(=O)Nc2nc(C)c(S(=O)(=O)NCCOC)s2)cc1`, with 137 °C. Then `Cc1nc(N(CCN(C)C)C(=O)Nc2ccc(N3CCOCC3)cc2)sc1S(N)(=O)=O`, with 123 °C. Take `CC(=O)Nc1cc(N2CCCC2)ccc1NC(=O)N(C)c1nc(C)c(S(=O)(=O)N(C)C)s1` [169]: the melting point is 162 to 163 °C.

Consider `CCCN(C(=O)Nc1ccc(-c2ccccc2)cc1)c1nc(C)c(S(N)(=O)=O)s1`, for which the melting point is 144 °C.

`CN(C(=O)Nc1ccc(N2CCOCC2)cc1)c1nc(Cl)c(S(=O)(=O)N(C)C)s1` [9] displayed a melting point of 210 °C. Under `Cc1nc(N(C)C(=O)Nc2ccc(N3CCOCC3)cc2)sc1S(=O)(=O)NCc1ccccc1` stands 216 °C; under `CC(=O)Nc1cc(N2CCCC2)ccc1NC(=O)N(C)c1nc(C)c(S(=O)(=O)N(C)C)s1` [168], 185 to 187 °C (dec.); under `CCc1nc(N(C)C(=O)Nc2ccc(-c3ccccc3)cc2)sc1S(=O)(=O)NC`, 204 °C. Under `CC(=O)Nc1cccc(Oc2ccc(NC(=O)N(C)c3nc(Cl)c(S(=O)(=O)N(C)C)s3)cc2)c1` stands 219 °C; under `C=CCN(C(=O)Nc1ccc(OCC)cc1)c1nc(C)c(S(=O)(=O)NC)s1`, 162 °C; under `CCCN(C(=O)Nc1ccc(OCC)cc1)c1nc(C)c(S(=O)(=O)NCc2ccccc2)s1`, 145 °C. Then `CCOc1ccc(NC(=O)N(CCN2CCOCC2)c2nc(C)c(S(=O)(=O)N(C)C)s2)cc1`, with 204 °C; and `CCOc1ccc(NC(=O)N(CCN(C)C)c2nc(C)c(S(=O)(=O)N(C)C)s2)cc1`, with 163 °C. Molecule `Cc1nc(N(C)C(=O)Nc2ccc(-c3ccccc3)cc2)sc1S(=O)(=O)NCC1CC1` registered a melting point of 176 °C. Under `CCOc1ccc(NC(=O)N(Cc2cccnc2)c2nc(C)c(S(N)(=O)=O)s2)cc1` stands 193 °C; under `CCOc1ccc(NC(=O)N(CCOC)c2nc(C)c(S(N)(=O)=O)s2)cc1`, 171 °C; under `Cc1nc(NC(=O)Nc2ccc(-c3ccccc3)cc2)sc1S(=O)(=O)N(C)C`, over 250 °C. Then `CCOc1ccc(NC(=O)N(C)c2nc(C)c(S(=O)(=O)N(C)CC)s2)cc1`, with 163 °C; and `CCCC(=O)Nc1cc(N2CCCC2)ccc1NC(=O)N(C)c1nc(C)c(S(=O)(=O)N(C)C)s1`, with 164 °C. Under `CNS(=O)(=O)c1sc(N(Cn2ccnc2)C(=O)Nc2ccc(-c3ccccc3)cc2)nc1C` stands 205 °C; under `CCOc1ccc(NC(=O)N(C)c2nc(CC)c(S(=O)(=O)NC)s2)cc1`, 210 °C. Turning to `CCCOc1ccc(NC(=O)N(CCN(C)C)c2nc(C)c(S(=O)(=O)NC)s2)cc1`, the melting point came to 165 °C. `CN(C(=O)Nc1ccc(-n2ccnn2)cc1)c1nc(Cl)c(S(=O)(=O)N(C)C)s1`: the melting point was 225 °C. In the case of `CCOc1ccc(NC(=O)N(C)c2nc(CC)c(S(=O)(=O)N(C)C)s2)cc1`, the melting point was 176 °C.

With `CN(C(=O)Nc1ccc(N2CCOCC2)cc1)c1nc(Cl)c(S(=O)(=O)NCc2ccccc2)s1`, the melting point is 201 °C. Under `CCOc1ccc(NC(=O)N(c2nc(C)c(S(=O)(=O)N(C)C)s2)C(C)CC)cc1` (stereo not shown) stands 130 °C; under `CCc1nc(N(C)C(=O)Nc2ccc(N3CCCC3)cc2)sc1S(=O)(=O)NC`, 217 °C. As to `Cc1nc(N(C)C(=O)Nc2ccc(OCC(C)(C)C)cc2)sc1S(=O)(=O)N(C)C`, the melting point worked out at 158 °C. Under `CCOc1ccc(NC(=O)N(Cc2cccnc2)c2nc(C)c(S(=O)(=O)N(C)C)s2)cc1` stands 180 °C; under `CCOc1ccc(NC(=O)N(CCOC)c2nc(C)c(S(=O)(=O)NC)s2)cc1`, 159 °C; under `CNS(=O)(=O)c1sc(N(CCOC)C(=O)Nc2ccc(N3CCOCC3)cc2)nc1C`, 188 °C.

Regarding `CCOc1ccc(NC(=O)N(CC2CCCO2)c2nc(C)c(S(=O)(=O)NC)s2)cc1` (stereo not shown), the melting point stood at 150 °C. Then `Cc1nc(N(C)C(=O)Nc2ccc(N3CCOCC3)cc2)sc1S(N)(=O)=O`, with 225 °C.

In turn, `CCOc1ccc(NC(=O)N(CCC2CCCN2C)c2nc(C)c(S(=O)(=O)NC)s2)cc1` (stereo not shown) displayed a melting point of 141 °C. Molecule `CCOc1ccc(NC(=O)N(C)c2nc(C)c(S(N)(=O)=O)s2)cc1` displayed a melting point of 196 °C. Then `CC(=O)N1CCc2c(cccc2Oc2ccc(NC(=O)N(C)c3nc(Cl)c(S(=O)(=O)N(C)C)s3)cc2)C1`, with 163 °C; and `CCOc1ccc(NC(=O)OCCN(C(=O)Nc2ccc(OCC)cc2)c2nc(C)c(S(=O)(=O)N(C)C)s2)cc1`, with 177 °C. Take `CNS(=O)(=O)c1sc(N(CCCN2CCN(C)CC2)C(=O)Nc2ccc(-c3ccccc3)cc2)nc1C`: the melting point came to 188 °C.

`CNS(=O)(=O)c1sc(N(CCCO)C(=O)Nc2ccc(N3CCOCC3)cc2)nc1C`: the melting point was determined as 181 °C. For the molecule `Cc1nc(N(C)C(=O)Nc2ccc(N3CCCCC3)cc2)sc1S(=O)(=O)NC1CC1`, the melting point turned out to be 198 °C. Then `CCCN(C(=O)Nc1ccc(OCC)cc1)c1nc(C)c(S(=O)(=O)NC2CC2)s1`, with 141 °C; and `CN(C(=O)Nc1ccc(N2CCOCC2)c(F)c1)c1nc(Cl)c(S(=O)(=O)N(C)C)s1`, with 196 °C; and `CCOc1ccc(NC(=O)N(CCO)c2nc(C)c(S(=O)(=O)N(C)C)s2)cc1`, with 160 °C. Under `CCOc1ccc(NC(=O)N(C)c2nc(Cl)c(S(=O)(=O)NCc3ccccc3)s2)cc1` stands 170 °C; under `CCOc1ccc(NC(=O)Nc2nc(C)c(S(=O)(=O)N3CCCC3)s2)cc1`, 198 °C; under `Cc1nc(N(CCN(C)C)C(=O)Nc2ccc(-c3ccccc3)cc2)sc1S(=O)(=O)N(C)C(=O)Nc1ccc(-c2ccccc2)cc1`, 190 °C. Then `CNS(=O)(=O)c1sc(N(C)C(=O)Nc2ccc(N3CCC(NC(=O)OC(C)(C)C)C3)cc2)nc1C` (stereo not shown), with 188 to 189 °C (dec.). `CCOc1ccc(NC(=O)N(Cc2nc3ccccc3[nH]2)c2nc(C)c(S(=O)(=O)NC)s2)cc1` gave a melting point of 197 °C. Then `CCCN(C(=O)Nc1ccc(-c2ccccc2)cc1)c1nc(C)c(S(=O)(=O)NCCO)s1`, with 156 °C; and `CCOc1ccc(NC(=O)N(C)c2nc(C)c(S(=O)(=O)NCc3ccco3)s2)cc1`, with 162 °C.
